Assay results from patent US10253052B2, “HBED-bisphosphonates, radiometal conjugates and their use as theranostic agents” (Five Eleven Pharma Inc., priority 2015, dated 2019).
Several values for one entry are separate records, joined by “and”; a condition that tells them apart may be missing. Equal values may be shown once. Entries after “also recorded” stand apart in the source; their conditions may differ.

What was measured:
[1] = tested on: PSMA positive LNCaP cells; assay: Cell uptake in PSMA positive LNCaP cells; type: cell-based; details: 1 hr incubation at 37° C.
[2] = tested on: PSMA expressing LNCaP tumor; assay: Micro-PET imaging in PSMA expressing tumor bearing mouse; type: in vivo, nude mice; details: 500 μCi, 60 min post injection, 15 min scan
Experimental: (§1) [^68Ga]1a, [^68Ga]BPAMD and [^18F]NaF were tested in normal CD-1 male mice. [^68Ga]1g was tested in PSMA expressing LNCaP tumor bearing nude mice. Mice received 300-500 uCi radiotracer through a tail vein injection. PET imaging was performed under isoflurane anaesthesia (2% isoflurane, 1.5 L/min oxygen). The microPET imaging was performed with a small animal PET (Mosaic by Phillips, USA). During PET measurements, the animals were placed in the prone position. At 60 min post injection of the radiotracer, data acquisition was performed for 15 min.

[3] = In vitro binding to hydroxyapatite; details: 20 mg hydroxyapatite in saline, 10 min at room temperature
Procedure, shortened: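 Binding is given as the percentage of ^68Ga activity retained by hydroxyapatite, measured by gamma counting of the solid versus the pooled supernatant and saline washes. The tracer (1 μCi) was exposed for 10 min at room temperature to hydroxyapatite pre-soaked 24 h in isotonic saline.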

PSMA negative PC3 cells = assay: Cell uptake in PSMA negative PC3 cells; type: cell-based; details: 1 hr incubation at 37° C.
[4] = In vivo biodistribution in mice; parameters: species or system normal CD-1 male mice; details: iv
Procedure, shortened: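 Uptake values are % injected dose per gram of wet tissue, from gamma counting of weighed organs with tibia plus femur taken as bone. Tracers (20-30 μCi per animal) were given i.v. to healthy male CD-1 mice (25-30 g), with sacrifice at 2, 30, 60 and 120 min post injection.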

[5] = Micro-PET imaging in normal mice; type: in vivo, normal CD-1 male mice; details: 15 min scan at 60 min post-injection
Experimental: as §1

O=C([O-])CN(CCN(CC(=O)[O-])Cc1cc(CCC(=O)NC(P(=O)(O)O)P(=O)(O)O)ccc1[O-])Cc1cc(CCC(=O)NCCCCCC(=O)NCCCC[C@H](NC(=O)N[C@@H](CCC(=O)O)C(=O)O)C(=O)O)ccc1[O-].[68Ga+3] [[^68Ga]1g]
Cell uptake in PSMA positive LNCaP cells (in words) [1]: high cell uptake and retention only in LNCaP cells; also recorded: excellent uptake | Micro-PET targeting (in words) [2]: targets both bone and PSMA binding sites | Hydroxyapatite Binding (%) [3]: 88.0 ± 10.5% | Cell uptake in PSMA negative PC3 cells (in words) (PSMA negative PC3 cells): no uptake | bone to blood ratio ([4]; 2 min): 0.97 | bone to muscle ratio ([4]; 2 min): 3.71 | Biodistribution: Blood ([4]; 2 min post injection): 8.34 ± 0.51 % dose/g | Biodistribution: Bone ([4]; 2 min post injection): 8.13 ± 1.87 % dose/g | Biodistribution: Brain ([4]; 2 min post injection): 0.21 ± 0.03 % dose/g | Biodistribution: Heart ([4]; 2 min post injection): 3.13 ± 0.15 % dose/g | Biodistribution: Kidney ([4]; 2 min post injection): 35.3 ± 3.75 % dose/g | Biodistribution: Liver ([4]; 2 min post injection): 1.73 ± 0.09 % dose/g | Biodistribution: Lung ([4]; 2 min post injection): 4.19 ± 0.50 % dose/g | Biodistribution: Muscle ([4]; 2 min post injection): 2.19 ± 0.11 % dose/g | Biodistribution: Pancreas ([4]; 2 min post injection): 1.69 ± 0.13 % dose/g | Biodistribution: Skin ([4]; 2 min post injection): 2.97 ± 0.14 % dose/g | Biodistribution: Spleen ([4]; 2 min post injection): 2.50 ± 0.41 % dose/g | bone to blood ratio ([4]; 30 min): 29 | bone to muscle ratio ([4]; 30 min): 46 | Biodistribution: Blood ([4]; 30 min (0.5 hr) post injection): 0.56 ± 0.10 % dose/g | Biodistribution: Bone ([4]; 30 min (0.5 hr) post injection): 16.3 ± 0.68 % dose/g | Biodistribution: Brain ([4]; 30 min (0.5 hr) post injection): 0.03 ± 0.00 % dose/g | Biodistribution: Heart ([4]; 30 min (0.5 hr) post injection): 0.45 ± 0.07 % dose/g | Biodistribution: Kidney ([4]; 30 min (0.5 hr) post injection): 77.1 ± 8.24 % dose/g | Biodistribution: Liver ([4]; 30 min (0.5 hr) post injection): 0.27 ± 0.02 % dose/g | Biodistribution: Lung ([4]; 30 min (0.5 hr) post injection): 1.02 ± 0.13 % dose/g | Biodistribution: Muscle ([4]; 30 min (0.5 hr) post injection): 0.35 ± 0.02 % dose/g | Biodistribution: Pancreas ([4]; 30 min (0.5 hr) post injection): 0.69 ± 0.02 % dose/g | Biodistribution: Skin ([4]; 30 min (0.5 hr) post injection): 0.65 ± 0.05 % dose/g | Biodistribution: Spleen ([4]; 30 min (0.5 hr) post injection): 2.09 ± 0.75 % dose/g | bone to blood ratio ([4]; 60 min): 53 | bone to muscle ratio ([4]; 60 min): 74 | Biodistribution: Blood ([4]; 60 min (1 hr) post injection): 0.28 ± 0.05 % dose/g | Biodistribution: Bone ([4]; 60 min (1 hr) post injection): 15.1 ± 1.04 % dose/g | Biodistribution: Brain ([4]; 60 min (1 hr) post injection): 0.03 ± 0.01 % dose/g | Biodistribution: Heart ([4]; 60 min (1 hr) post injection): 0.32 ± 0.03 % dose/g | Biodistribution: Kidney ([4]; 60 min (1 hr) post injection): 78.4 ± 7.11 % dose/g | Biodistribution: Liver ([4]; 60 min (1 hr) post injection): 0.18 ± 0.01 % dose/g | Biodistribution: Lung ([4]; 60 min (1 hr) post injection): 0.58 ± 0.02 % dose/g | Biodistribution: Muscle ([4]; 60 min (1 hr) post injection): 0.21 ± 0.02 % dose/g | Biodistribution: Pancreas ([4]; 60 min (1 hr) post injection): 0.37 ± 0.07 % dose/g | Biodistribution: Skin ([4]; 60 min (1 hr) post injection): 0.42 ± 0.06 % dose/g | Biodistribution: Spleen ([4]; 60 min (1 hr) post injection): 0.91 ± 0.13 % dose/g | bone to blood ratio ([4]; 120 min): 98 | bone to muscle ratio ([4]; 120 min): 98 | Biodistribution: Blood ([4]; 120 min post injection): 0.17 ± 0.03 % dose/g | Biodistribution: Bone ([4]; 120 min post injection): 17.0 ± 0.05 % dose/g | Biodistribution: Brain ([4]; 120 min post injection): 0.02 ± 0.00 % dose/g | Biodistribution: Heart ([4]; 120 min post injection): 0.20 ± 0.03 % dose/g | Biodistribution: Kidney ([4]; 120 min post injection): 70.3 ± 8.29 % dose/g | Biodistribution: Liver ([4]; 120 min post injection): 0.18 ± 0.02 % dose/g | Biodistribution: Lung ([4]; 120 min post injection): 0.47 ± 0.04 % dose/g | Biodistribution: Muscle ([4]; 120 min post injection): 0.17 ± 0.04 % dose/g | Biodistribution: Pancreas ([4]; 120 min post injection): 0.34 ± 0.03 % dose/g | Biodistribution: Skin ([4]; 120 min post injection): 0.29 ± 0.06 % dose/g | Biodistribution: Spleen ([4]; 120 min post injection): 0.87 ± 0.20 % dose/g

[18F-].[Na+] [[^18F]NaF, reference compound]
Hydroxyapatite Binding (%) [3]: 78.4 ± 3.9% | bone to blood ratio ([4]; 2 min): 1.9 | bone to muscle ratio ([4]; 2 min): 7.2 | Biodistribution: Blood ([4]; 2 min post injection): 5.56 ± 0.37 % dose/g | Biodistribution: Bone ([4]; 2 min post injection): 10.8 ± 0.51 % dose/g | Biodistribution: Brain ([4]; 2 min post injection): 0.22 ± 0.07 % dose/g | Biodistribution: Heart ([4]; 2 min post injection): 2.80 ± 0.24 % dose/g | Biodistribution: Kidney ([4]; 2 min post injection): 10.4 ± 1.22 % dose/g | Biodistribution: Liver ([4]; 2 min post injection): 2.56 ± 0.24 % dose/g | Biodistribution: Lung ([4]; 2 min post injection): 3.37 ± 0.17 % dose/g | Biodistribution: Muscle ([4]; 2 min post injection): 1.50 ± 0.06 % dose/g | Biodistribution: Pancreas ([4]; 2 min post injection): 1.76 ± 0.07 % dose/g | Biodistribution: Skin ([4]; 2 min post injection): 2.35 ± 0.45 % dose/g | Biodistribution: Spleen ([4]; 2 min post injection): 2.33 ± 0.14 % dose/g | bone to blood ratio ([4]; 30 min): 38 | bone to muscle ratio ([4]; 30 min): 73 | Biodistribution: Blood ([4]; 30 min (0.5 hr) post injection): 0.64 ± 0.08 % dose/g | Biodistribution: Bone ([4]; 30 min (0.5 hr) post injection): 24.2 ± 2.71 % dose/g | Biodistribution: Brain ([4]; 30 min (0.5 hr) post injection): 0.10 ± 0.02 % dose/g | Biodistribution: Heart ([4]; 30 min (0.5 hr) post injection): 0.96 ± 0.23 % dose/g | Biodistribution: Kidney ([4]; 30 min (0.5 hr) post injection): 1.70 ± 0.62 % dose/g | Biodistribution: Liver ([4]; 30 min (0.5 hr) post injection): 0.65 ± 0.17 % dose/g | Biodistribution: Lung ([4]; 30 min (0.5 hr) post injection): 0.55 ± 0.11 % dose/g | Biodistribution: Muscle ([4]; 30 min (0.5 hr) post injection): 0.33 ± 0.11 % dose/g | Biodistribution: Pancreas ([4]; 30 min (0.5 hr) post injection): 0.42 ± 0.27 % dose/g | Biodistribution: Skin ([4]; 30 min (0.5 hr) post injection): 0.51 ± 0.11 % dose/g | Biodistribution: Spleen ([4]; 30 min (0.5 hr) post injection): 0.93 ± 0.56 % dose/g | bone to blood ratio ([4]; 60 min): 161 | bone to muscle ratio ([4]; 60 min): 291 and 281 | Biodistribution: Blood ([4]; 60 min (1 hr) post injection): 0.15 ± 0.01 % dose/g | Biodistribution: Bone ([4]; 60 min (1 hr) post injection): 24.6±3.2 % dose/g and 24.6 ± 3.18 % dose/g | Biodistribution: Brain ([4]; 60 min (1 hr) post injection): 0.06 ± 0.01 % dose/g | Biodistribution: Heart ([4]; 60 min (1 hr) post injection): 0.18 ± 0.02 % dose/g | Biodistribution: Kidney ([4]; 60 min (1 hr) post injection): 0.68 ± 0.36 % dose/g | Biodistribution: Liver ([4]; 60 min (1 hr) post injection): 0.13 ± 0.01 % dose/g | Biodistribution: Lung ([4]; 60 min (1 hr) post injection): 0.14 ± 0.01 % dose/g | Biodistribution: Muscle ([4]; 60 min (1 hr) post injection): 0.09 ± 0.02 % dose/g | Biodistribution: Pancreas ([4]; 60 min (1 hr) post injection): 0.07 ± 0.00 % dose/g | Biodistribution: Skin ([4]; 60 min (1 hr) post injection): 0.11 ± 0.02 % dose/g | Biodistribution: Spleen ([4]; 60 min (1 hr) post injection): 0.12 ± 0.02 % dose/g | bone to blood ratio ([4]; 120 min): 760 | bone to muscle ratio ([4]; 120 min): 593 | Biodistribution: Blood ([4]; 120 min post injection): 0.03 ± 0.00 % dose/g | Biodistribution: Bone ([4]; 120 min post injection): 25.2 ± 3.89 % dose/g | Biodistribution: Brain ([4]; 120 min post injection): 0.04 ± 0.00 % dose/g | Biodistribution: Heart ([4]; 120 min post injection): 0.04 ± 0.00 % dose/g | Biodistribution: Kidney ([4]; 120 min post injection): 0.57 ± 0.43 % dose/g | Biodistribution: Liver ([4]; 120 min post injection): 0.03 ± 0.01 % dose/g | Biodistribution: Lung ([4]; 120 min post injection): 0.04 ± 0.01 % dose/g | Biodistribution: Muscle ([4]; 120 min post injection): 0.04 ± 0.04 % dose/g | Biodistribution: Pancreas ([4]; 120 min post injection): 0.02 ± 0.00 % dose/g | Biodistribution: Skin ([4]; 120 min post injection): 0.03 ± 0.00 % dose/g | Biodistribution: Spleen ([4]; 120 min post injection): 0.03 ± 0.01 % dose/g | Micro-PET localization (in words) [5]: localized in the spines of mice

O=C(O)CCC(CP(=O)(O)O)C(=O)O (stereo not drawn) [2-PMPA, 2-(phosphonomethyl)pentane-1,5-dioic acid, reference compound]
Blocking of [68Ga]1g cell uptake to PSMA positive LNCaP cells [1]: blocked the cell uptake
